Columns and labels:
Assay in all cases: cells
[1] = test system: MES SA (human uterine sarcoma); settings: 72 h, read-out: IC50 MES SA
[2] = test system: HEK 293T (human embryonic kidney cancer cell line); settings: 72 h, read-out: IC50 HEK 293T
[3] = test system: MES SA DX (human uterine sarcoma cell line with marked multidrug resistance); settings: 72 h, read-out: IC50 MES SA DX

IC50 [1] | IC50 [3] | SMILES | IC50 [2]
5.96 nM | 4.41 nM | CC(=O)Oc1c(Cl)ccc2c1C(=O)c1c(cc(C)c3c1O[C@]1(OC(C)=O)[C@H]4O[C@@](C5OCCCO5)(O[C@H]34)[C@]13CO3)C2=O [Trx32, (1S,2S,3aS,4R,13aS)-10-Chloro-2-(1,3-dioxan-2-yl)-5-methyl-7,12-dioxo-3a,4,7,12-tetrahydro-13aH-spiro[2,4-epoxyfuro[3,2-b]naphtho[2,3-h]chromene-1,2′-oxirane]-11,13a-diyl diacetate] | 6.73 nM
1.09 nM | 0.65 nM | CO[C@@]12Oc3c4c(cc(C)c3[C@H]3O[C@](C5OCCCO5)(O[C@@H]31)[C@]21CO1)C(=O)c1cccc(O)c1C4=O [Trx31, (1S,2S,3aS,4R,13aR)-2-(1,3-Dioxan-2-yl)-11-hydroxy-13a-methoxy-5-methyl-3a,13a-dihydro-4H-spiro[2,4-epoxyfuro[3,2-b]naphtho[2,3-h]chromene-1,2′-oxirane]-7,12-dione] | 1.44 nM
1.44 nM | 1.05 nM | CO[C@@]12Oc3c4c(cc(C)c3[C@H]3O[C@](C5OCCCO5)(O[C@@H]31)[C@]21CO1)C(=O)c1cccc(OC(C)=O)c1C4=O [Trx29, (1S,2S,3aS,4R,13aR)-2-(1,3-Dioxan-2-yl)-13a-methoxy-5-methyl-7,12-dioxo-3a,7,12,13a-tetrahydro-4H-spiro[2,4-epoxyfuro[3,2-b]naphtho[2,3-h]chromene-1,2′-oxiran]-11-yl acetate] | 1.87 nM
42 nM | 37.8 nM | Cc1cc2c(c3c1[C@H]1O[C@]4(C5OCCCO5)O[C@@H]1[C@@](O)(O3)[C@@]41CO1)C(=O)c1c(O)cccc1C2=O [Trx30, (1S,2S,3aS,4R,13aR)-2-(1,3-Dioxan-2-yl)-11,13a-dihydroxy-5-methyl-3a,13a-dihydro-4H-spiro[2,4-epoxyfuro[3,2-b]naphtho[2,3-h]chromene-1,2′-oxirane]-7,12-dione] | 50.5 nM
54.3 nM | 33.2 nM | CO[C@@]12Oc3c4c(cc(C)c3[C@H]3O[C@](C5OCCCO5)(O[C@@H]31)[C@]21CO1)C(=O)c1ccc(Cl)c(OC(C)=O)c1C4=O [Trx33, (1S,2S,3aS,4R,13aR)-10-Chloro-2-(1,3-dioxan-2-yl)-13a-methoxy-5-methyl-7,12-dioxo-3a,7,12,13a-tetrahydro-4H-spiro[2,4-epoxyfuro[3,2-b]naphtho[2,3-h]chromene-1,2′-oxiran]-11-yl acetate] | 38.8 nM
11.1 nM | 11.9 nM | CC(=O)Oc1cccc2c1C(=O)c1c(cc(C)c3c1O[C@]1(OC(C)=O)[C@H]4O[C@@](C5OCCCO5)(O[C@H]34)[C@]13CO3)C2=O [Trx28, (1S,2S,3aS,4R,13aS)-2-(1,3-Dioxan-2-yl)-5-methyl-7,12-dioxo-3a,4,7,12-tetrahydro-13aH-spiro[2,4-epoxyfuro[3,2-b]naphtho[2,3-h]chromene-1,2′-oxirane]-11,13a-diyl diacetate] | 11.2 nM

Second part, the compound before the results:

SMILES | IC50 [1] | IC50 [3] | IC50 [2]
COc1c2c(c(O)c3c4c(c(C)cc13)C1OC3(C5OCCCO5)OC1[C@@](OC(C)=O)(O4)[C@@]31CO1)C(=O)CCC2 (stereo partly drawn) [Trx14] | 6.11 nM | 17.4 nM | 6.89 nM
COc1c2c(c(O)c3c4c(c(C)cc13)C1O[C@@]3(C5OCCCO5)OC1[C@@](O[C@H]1C[C@H](OC(C)=O)[C@@](O)(C(C)=O)[C@H](C)O1)(O4)[C@@]31CO1)C(=O)CCC2 (stereo partly drawn) [Trx20, (1S,2R,13aS)-2-(1,3-dioxan-2-yl)-12-hydroxy-7-methoxy-5-methyl-11-oxo-3a,4,8,9,10,11-hexahydro-13aH-spiro[2,4-epoxyfuro[3,2-b]naphtho[2,3-h]chromene-1,2′-oxiran]-13a-yl 4-C-acetyl-3-O-acetyl-2,6-dideoxy-α-L-lyxo-hexopyranoside] | 5.14 nM | 52.4 nM | 4.31 nM
COCO[C@@]12Oc3c(c(C)cc4c(OC)c5c(c(O)c34)C(=O)CCC5)[C@H]3O[C@](C4OCCO4)(O[C@@H]31)[C@]21CO1 [Trx10, (1S,2S,3aS,4R,13aS)-2-(1,3-Dioxolan-2-yl)-12-hydroxy-7-methoxy-13a-(methoxymethoxy)-5-methyl-3a,4,8,9,10,13a-hexahydro-11H-spiro[2,4-epoxyfuro[3,2-b]naphtho[2,3-h]chromene-1,2′-oxiran]-11-one] | 3.88 nM | 2.18 nM | 1.51 nM
COc1c2c(c(O)c3c4c(c(C)cc13)C1OC3(C5OCCCO5)OC1[C@@](O)(O4)[C@@]31CO1)C(=O)CCC2 (stereo partly drawn) [Trx12] | 3.72 nM | 5.72 nM | 2.46 nM
C=CCO[C@@]12Oc3c(c(C)cc4c(OC)c5c(c(O)c34)C(=O)CCC5)[C@H]3O[C@](C4OCCCO4)(O[C@@H]31)[C@]21CO1 [Trx17, (1S,2S,3aS,4R,13aR)-13a-(Allyloxy)-2-(1,3-dioxan-2-yl)-12-hydroxy-7-methoxy-5-methyl-3a,4,8,9,10,13a-hexahydro-11H-spiro[2,4-epoxyfuro[3,2-b]naphtho[2,3-h]chromene-1,2′-oxiran]-11-one] | 4.91 nM | 3.48 nM | 2.77 nM
COc1c2c(c(O)c3c4c(c(C)cc13)C1O[C@@]3(C5OCCCO5)OC1C(O[C@H]1C[C@H](OC)[C@@H](NC(C)C)CO1)(O4)[C@@]31CO1)C(=O)CCC2 (stereo partly drawn) [Trx19, (1S,2R)-2-(1,3-dioxan-2-yl)-12-hydroxy-7-methoxy-5-methyl-11-oxo-3a,4,8,9,10,11-hexahydro-13aH-spiro[2,4-epoxyfuro[3,2-b]naphtho[2,3-h]chromene-1,2′-oxiran]-13a-yl 2,4-dideoxy-4-(iso-propylamino)-3-O-methyl-α-L-threo-pentopyranoside] | 0.96 nM | 70.7 nM | 0.77 nM
C=CCOC(=O)N(C(C)C)[C@H]1CO[C@@H](O[C@@]23Oc4c(c(C)cc5c(OC)c6c(c(O)c45)C(=O)CCC6)C4OC(C5OCCCO5)(OC42)[C@]32CO2)C[C@@H]1OC (stereo partly drawn) [Trx18, (1S,13aS)-2-(1,3-Dioxan-2-yl)-12-hydroxy-7-methoxy-5-methyl-11-oxo-3a,4,8,9,10,11-hexahydro-13aH-spiro[2,4-epoxyfuro[3,2-b]naphtho[2,3-h]chromene-1,2′-oxiran]-13a-yl 4-{[(allyloxy)carbonyl](isopropyl)amino}-2,4-dideoxy-3-O-methyl-α-L-threo-pentopyranoside] | > 1000 nM | > 1000 nM | 40.2 nM
COc1c2c(c(O)c3c4c(c(C)cc13)[C@H]1O[C@]3(C5OCCO5)O[C@@H]1[C@@](O)(O4)[C@@]31CO1)C(=O)CCC2 [Trx8, (1S,2S,3aS,4R,13aR)-2-(1,3-Dioxolan-2-yl)-12,13a-dihydroxy-7-methoxy-5-methyl-3a,4,8,9,10,13a-hexahydro-11H-spiro[2,4-epoxyfuro[3,2-b]naphtho[2,3-h]chromene-1,2′-oxiran]-11-one] | 51.9 nM | 49.3 nM | 30.7 nM
COc1c2c(c(O)c3c4c(c(C)cc13)C1O[C@@]3(C5OCCCO5)OC1[C@@](O[C@H]1C[C@H](O)[C@@](O)([C@@H](C)O)[C@H](C)O1)(O4)[C@@]31CO1)C(=O)CCC2 (stereo partly drawn) [Trx23, (1S,2R,13aS)-2-(1,3-dioxan-2-yl)-12-hydroxy-7-methoxy-5-methyl-11-oxo-3a,4,8,9,10,11-hexahydro-13aH-spiro[2,4-epoxyfuro[3,2-b]naphtho[2,3-h]chromene-1,2′-oxiran]-13a-yl 2,6-dideoxy-4-C-[(1R)-1-hydroxyethyl]-α-L-lyxo-hexopyranoside] | 5.85 nM | 33.7 nM | 2.74 nM
